Measurements from PubChem BioAssay AID1918994 (Molecular Pharmacology Branch, DTP, NCI, 2023).
Where “and” joins values, the source holds several entries; their conditions need not be identical. Equal entries are not always repeated.

Tested on: 292921-168-R-J2-PDC complex spheroid growth
Test: Anticancer human tumor 292921-168-R-J2-PDC patient-derived pancreatic carcinoma cell line growth inhibition [AhR]
Conditions: for viability, T/C: stronger effect = lower value
In short: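 Agents were dosed in half-log steps down from roughly clinical Cmax, or from 10 microM where Cmax was unknown, alone and with AhR antagonists. Read-out: percent test/control growth of tumor spheroids containing HUVEC and MSC stromal cells.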

[1] = curve of first compound, second compound 0.1 µM
[2] = curve of first compound, second compound 0.316 µM
[3] = curve of first compound, second compound 1 µM
[4] = curve of first compound, second compound 3.16 µM
[5] = curve of first compound, second compound 10 µM
[6] = second compound 0.1 µM, first compound 0.0316 µM
[7] = second compound 0.1 µM, first compound 0.1 µM
[8] = second compound 0.316 µM, first compound 0.0316 µM
[9] = second compound 0.316 µM, first compound 0.1 µM
[10] = second compound 1 µM, first compound 0.0316 µM
[11] = second compound 1 µM, first compound 0.1 µM
[12] = second compound 3.16 µM, first compound 0.0316 µM
[13] = second compound 3.16 µM, first compound 0.1 µM
[14] = second compound 10 µM, first compound 0.0316 µM
[15] = second compound 10 µM, first compound 0.1 µM
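Note: spheroids exposed to compounds for seven days after three days of growth.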

**Q.** What does the source list for CC[C@@]1(O)C(=O)OCc2c1cc1n(c2=O)Cc2cc3c(CN(C)C)c(O)ccc3nc2-1 + Cc1cncc(-c2nc(NCCc3c[nH]c4ccccc34)c3ncn(C(C)C)c3n2)c1?
**A.** IC50 [1]: 0.0392 µM; IC50 [2]: 0.0281 µM; IC50 [3]: 0.0302 µM; IC50 [4]: 0.021 µM; IC50 [5]: 0.00119 µM; viability, T/C (second compound 0.1 µM, first compound 0.000316 µM): 90.2%; viability, T/C (second compound 0.1 µM, first compound 0.001 µM): 90.4%; viability, T/C (second compound 0.1 µM, first compound 0.00316 µM): 89.5%; viability, T/C (second compound 0.1 µM, first compound 0.01 µM): 68.1%; viability, T/C [6]: 58.9%; viability, T/C [7]: 23.3%; viability, T/C (second compound 0.316 µM, first compound 0.000316 µM): 89.1%; viability, T/C (second compound 0.316 µM, first compound 0.001 µM): 92.8%; viability, T/C (second compound 0.316 µM, first compound 0.00316 µM): 87.8%; viability, T/C (second compound 0.316 µM, first compound 0.01 µM): 67.4%; viability, T/C [8]: 49.6%; viability, T/C [9]: 23.7%; viability, T/C (second compound 1 µM, first compound 0.000316 µM): 91%; viability, T/C (second compound 1 µM, first compound 0.001 µM): 90.6%; viability, T/C (second compound 1 µM, first compound 0.00316 µM): 80.9%; viability, T/C (second compound 1 µM, first compound 0.01 µM): 60.3%; viability, T/C [10]: 54%; viability, T/C [11]: 24.1%; viability, T/C (second compound 3.16 µM, first compound 0.000316 µM): 69.9%; viability, T/C (second compound 3.16 µM, first compound 0.001 µM): 67.7%; viability, T/C (second compound 3.16 µM, first compound 0.00316 µM): 73.2%; viability, T/C (second compound 3.16 µM, first compound 0.01 µM): 59.4%; viability, T/C [12]: 44.2%; viability, T/C [13]: 22.2%; viability, T/C (second compound 10 µM, first compound 0.000316 µM): 52.1%; viability, T/C (second compound 10 µM, first compound 0.001 µM): 49.1%; viability, T/C (second compound 10 µM, first compound 0.00316 µM): 50.1%; viability, T/C (second compound 10 µM, first compound 0.01 µM): 37.5%; viability, T/C [14]: 33.4%; viability, T/C [15]: 24.2%

**Q.** What does the source list for CC1COCCN1c1cc(C2(S(C)(=N)=O)CC2)nc(-c2ccnc3[nH]ccc23)n1 (configuration not stated)?
**A.** viability, T/C (compound 0.0316 µM): 98% and 110% (2×); viability, T/C (compound 0.1 µM): 93.9% and 96.9% and 110%; viability, T/C (compound 0.316 µM): 89.8% and 90.3% and 106%; viability, T/C (compound 1 µM): 89.2% and 77.6% and 79.8%; viability, T/C (compound 3.16 µM): 58% and 44.7% and 50.7%; viability, T/C (compound 10 µM): 27.7% (2×) and 21.3%; IC50 (curve of compound): 4.3 µM and 2.86 µM and 3.08 µM

**Q.** Which IC50 [1] does the source give for COc1cccc2c1C(=O)c1c(O)c3c(c(O)c1C2=O)CC(O)(C(=O)CO)CC3OC1CC(N)C(O)C(C)O1 (configuration not stated) + Cc1ccccc1N=Nc1ccc(NC(=O)c2ccnn2C)c(C)c1 here?
**A.** The IC50 was less than 0.0316 µM.

**Q.** What about the IC50 [2] of the same molecule?
**A.** The IC50 was less than 0.0316 µM.

**Q.** What about the IC50 [3] of the same molecule?
**A.** The IC50 was less than 0.0316 µM.

**Q.** And the IC50 [4]?
**A.** The IC50 was less than 0.0316 µM.

**Q.** And the IC50 [5]?
**A.** Its IC50 is less than 0.0316 µM.

**Q.** What about the viability, T/C [6] of the same molecule?
**A.** Its viability, T/C is 24.3%.

**Q.** What about the viability, T/C [7] of the same molecule?
**A.** Its viability, T/C is 17%.

**Q.** And the viability, T/C (second compound 0.1 µM, first compound 0.316 µM)?
**A.** Its viability, T/C is 5.13%.

**Q.** And the viability, T/C (second compound 0.1 µM, first compound 1 µM)?
**A.** The viability, T/C was 0.17%.

**Q.** What about the viability, T/C (second compound 0.1 µM, first compound 3.16 µM) of the same molecule?
**A.** The viability, T/C was 0.69%.

**Q.** And the viability, T/C (second compound 0.1 µM, first compound 10 µM)?
**A.** The viability, T/C was 1.91%.

**Q.** What about the viability, T/C [8] of the same molecule?
**A.** Its viability, T/C is 20.1%.

**Q.** And the viability, T/C [9]?
**A.** The viability, T/C was 15.5%.

**Q.** And the viability, T/C (second compound 0.316 µM, first compound 0.316 µM)?
**A.** The viability, T/C was 4.33%.

**Q.** And the viability, T/C (second compound 0.316 µM, first compound 1 µM)?
**A.** The viability, T/C was 0.12%.

**Q.** And the viability, T/C (second compound 0.316 µM, first compound 3.16 µM)?
**A.** The viability, T/C was 0.59%.

**Q.** And the viability, T/C (second compound 0.316 µM, first compound 10 µM)?
**A.** The viability, T/C was 2.35%.

**Q.** And the viability, T/C [10]?
**A.** The viability, T/C was 23.3%.

**Q.** What about the viability, T/C [11] of the same molecule?
**A.** Its viability, T/C is 16.1%.

**Q.** What about the viability, T/C (second compound 1 µM, first compound 0.316 µM) of the same molecule?
**A.** The viability, T/C was 2.12%.

**Q.** And the viability, T/C (second compound 1 µM, first compound 1 µM)?
**A.** The viability, T/C was 3.61%.

**Q.** And the viability, T/C (second compound 1 µM, first compound 3.16 µM)?
**A.** The viability, T/C was 0.65%.

**Q.** And the viability, T/C (second compound 1 µM, first compound 10 µM)?
**A.** Its viability, T/C is 5.48%.

**Q.** What about the viability, T/C [12] of the same molecule?
**A.** Its viability, T/C is 19%.

**Q.** What about the viability, T/C [13] of the same molecule?
**A.** Its viability, T/C is 13.9%.

**Q.** And the viability, T/C (second compound 3.16 µM, first compound 0.316 µM)?
**A.** The viability, T/C was 1.59%.

**Q.** And the viability, T/C (second compound 3.16 µM, first compound 1 µM)?
**A.** Its viability, T/C is 5.2%.

**Q.** What about the viability, T/C (second compound 3.16 µM, first compound 3.16 µM) of the same molecule?
**A.** Its viability, T/C is 0.73%.

**Q.** What about the viability, T/C (second compound 3.16 µM, first compound 10 µM) of the same molecule?
**A.** The viability, T/C was 1.88%.

**Q.** What about the viability, T/C [14] of the same molecule?
**A.** The viability, T/C was 17.2%.

**Q.** And the viability, T/C [15]?
**A.** Its viability, T/C is 12.1%.

**Q.** What about the viability, T/C (second compound 10 µM, first compound 0.316 µM) of the same molecule?
**A.** Its viability, T/C is 0.42%.

**Q.** What about the viability, T/C (second compound 10 µM, first compound 1 µM) of the same molecule?
**A.** The viability, T/C was 0.36%.

**Q.** And the viability, T/C (second compound 10 µM, first compound 3.16 µM)?
**A.** Its viability, T/C is 1.18%.

**Q.** What about the viability, T/C (second compound 10 µM, first compound 10 µM) of the same molecule?
**A.** Its viability, T/C is 4.37%.
